Source: patent US20100240748A1, “TETRAHYDRONAPHTHALEN-2-OL DERIVATIVES” (N. V. Organon, priority 2009, published 2010)

Experiments:
[1] = biological target: human estrogen receptor β (hERβ) (Homo sapiens, UniProt Q92731); test: ERβ transactivation bioassay in recombinant CHO cells (hERβ, rat oxytocin promoter, luciferase reporter); assay type: cell-based; conditions: for ERβ/ERα ratio: ERβ agonistic selectivity over ERα, transactivation data; for EC50: transactivation of luciferase in CHO cells co-transfected with hERβ, read-out: ERβ agonistic EC50
Sequence of human estrogen receptor β (hERβ) (Q92731 whole entry): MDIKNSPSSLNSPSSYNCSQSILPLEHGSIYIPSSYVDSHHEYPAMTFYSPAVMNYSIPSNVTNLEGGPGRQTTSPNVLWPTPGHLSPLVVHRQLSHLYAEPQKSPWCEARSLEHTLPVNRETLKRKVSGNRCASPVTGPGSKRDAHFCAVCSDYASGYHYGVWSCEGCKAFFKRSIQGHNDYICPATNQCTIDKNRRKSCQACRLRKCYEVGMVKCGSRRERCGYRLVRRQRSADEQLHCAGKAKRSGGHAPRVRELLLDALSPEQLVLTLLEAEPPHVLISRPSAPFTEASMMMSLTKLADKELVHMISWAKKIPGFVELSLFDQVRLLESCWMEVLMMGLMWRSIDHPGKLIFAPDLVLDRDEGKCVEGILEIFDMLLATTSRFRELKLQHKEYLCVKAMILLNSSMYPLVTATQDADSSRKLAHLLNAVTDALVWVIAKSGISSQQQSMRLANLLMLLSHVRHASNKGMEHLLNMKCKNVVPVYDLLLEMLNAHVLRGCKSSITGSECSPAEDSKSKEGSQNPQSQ
Experimental: (§1) The estrogenic and antiestrogenic activity of compounds was determined in an in vitro bioassay with recombinant Chinese hamster ovary (CHO) cells stably co-transfected with the human estrogen receptor α (hERα) or β receptor (hERβ), the rat oxytocin promoter (RO) and the luciferase reporter gene (LUC). The estrogenic activity of a test compound to stimulate the transactivation of the enzyme luciferase mediated via the estrogen receptors hERα or hERβ is expressed in nM. The assay was performed as described by De Gooyer et al., Steroids 68 (2003), 21-30.

[2] = metabolic stability in human hepatocytes; assay type: in vitro ADME; conditions: human, cryopreserved human hepatocytes (suspension); tetrahydronaphthalen-2-ol; 37° C., sampled 0-120 min, LC-MS/MS; read-out: Human hepatocyte T 1/2
Experimental: (§2) A number of compounds 9, 11 and 12 were tested on metabolic stability in human hepatocytes. The hepatic stability was compared to corresponding chroman compounds 25, 26 or 27 (see structures below).
(§3) Test compounds were diluted to 3 μM in incubation medium. Then 40 μl of the 3 μM test compounds was pipetted into a 96 well microtiter plate (flat bottom). Hepatocytes (stored at −140° C.) were thawed in a 37° C. water bath. The cells were resuspended into pre-warmed thawing medium and were centrifuged for 5 minutes at 50 g at room temperature. The supernatant was discarded and the remaining cell pellet was resuspended in warm incubation medium and diluted to 7.5 E5 cells/ml. Then 80 μl of the cell suspension was added to each well of the 96 well microtiter plate containing the test compounds. The resulting mixture was incubated at 37° C. and was sampled at t=0, 5, 30, 60, and 120 min. The samples were analyzed by LC-MS/MS to determine the content of unchanged test compound. Based on the rate of reduction of the content of test compound over time, the half-live (T½) was calculated.

[3] = tested on: acinar epithelium of the ventral prostate; test: short-term prostate apoptosis and proliferation model in castrated rats; assay type: in vivo, rat
Experimental: Selected compounds were tested in a short-term prostate apoptosis and proliferation model in castrated rats.
Intact mature male Wistar rats (350-400 g) were castrated and left to recover for 1 week. 7 days after the castration rats received a single subcutaneous injection of testosterone buciclate (TB), a long-acting testosterone ester, in arachis oil (20 mg/kg) with a volume of 1 ml/kg and were subsequently treated once daily orally for 3 days with the test substance at doses between 0 and 1000 μg/kg, dissolved in gelatin/mannitol and dosed with a volume of 1 ml/kg.
At the end of the experiment rats were euthanized, the prostates were removed, weighed and processed for histology.
Apoptosis of the acinar epithelium of the ventral prostate was determined with TUNEL ([…]) staining. Apoptotic cells show nuclear DNA fragmentation and the TUNEL assay end-labels the fragmented DNA by incorporating biotinylated dUTP at the 3′-OH DNA ends using the enzyme Terminal deoxynucleotidyl Transferase (TdT). Positively stained cells are counted per acinus (glandular unit) in the ventral prostate. Proliferation of the acinar epithelium of the ventral prostate was determined by immunohistochemical staining with an antibody directed against Ki67 (clone Mib5). Positively stained cells are counted per acinus (glandular unit) in the ventral prostate. Statistical significance is determined as compared to TB alone by one-way ANOVA.

human hepatocytes = test: metabolic stability in human hepatocytes; assay type: in vitro ADME; conditions: tetrahydronaphthalen-2-ol; 37° C., sampled 0-120 min, LC-MS/MS
Experimental: as §2, §3

[4] = biological target: T1, human estrogen receptor α (hERα) (Homo sapiens, UniProt P03372); test: ERα transactivation bioassay in recombinant CHO cells (hERα, rat oxytocin promoter, luciferase reporter); assay type: cell-based; conditions: ratio of activities of eutomer and distomer on ERα
T1 sequence (P03372 1-595): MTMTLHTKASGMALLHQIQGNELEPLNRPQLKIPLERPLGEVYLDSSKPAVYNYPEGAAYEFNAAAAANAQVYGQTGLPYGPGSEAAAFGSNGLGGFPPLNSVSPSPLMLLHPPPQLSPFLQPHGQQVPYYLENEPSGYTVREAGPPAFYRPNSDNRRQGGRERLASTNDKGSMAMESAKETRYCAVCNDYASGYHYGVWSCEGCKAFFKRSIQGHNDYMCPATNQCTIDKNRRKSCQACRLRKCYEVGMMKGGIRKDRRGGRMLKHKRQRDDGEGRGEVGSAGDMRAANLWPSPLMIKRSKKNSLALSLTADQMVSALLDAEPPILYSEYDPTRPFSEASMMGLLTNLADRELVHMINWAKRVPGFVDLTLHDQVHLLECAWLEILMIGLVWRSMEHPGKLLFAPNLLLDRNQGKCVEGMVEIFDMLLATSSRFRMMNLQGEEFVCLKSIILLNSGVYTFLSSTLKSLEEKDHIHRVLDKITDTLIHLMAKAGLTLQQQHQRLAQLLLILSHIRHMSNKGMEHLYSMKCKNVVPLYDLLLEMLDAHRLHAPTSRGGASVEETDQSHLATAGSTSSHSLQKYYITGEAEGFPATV
Experimental: as §1

Compound | ERβ/ERα ratio [1] | EC50 [1] | half-life at 1 µM [2] | further results
CCC1C(c2ccc(O)c(F)c2)Cc2ccc(O)cc2C1Cc1ccccc1F (racemic) [Compound 9q, 7-ethyl-6-(3-fluoro-4-hydroxyphenyl)-8-(2-fluorobenzyl)-5,6,7,8-tetrahydronaphthalen-2-ol] | >67 | 1.5 nM |  | 
C[C@H]1[C@@H](c2ccc(O)cc2)Cc2ccc(O)cc2[C@H]1Cc1c(F)cccc1F (single isomer, unassigned) [Compound 11i] |  |  | 29.4 min | 
C[C@H]1[C@@H](c2ccc(O)cc2)Cc2ccc(O)cc2[C@H]1Cc1ccccc1F (single isomer, unassigned) [Compound 11a] |  |  |  | epithelial cell proliferation ([3]; at 3 μg/kg, Ki67 staining, compared to TB-alone treated rats): decrease in epithelial cell proliferation; minimal active dose (MAD), increase in epithelial cell apoptosis ([3]; castrated Wistar rats with testosterone buciclate, once daily orally for 3 days, TUNEL staining, ventral prostate): 3 µg/kg; epithelial cell apoptosis ([3]; castrated rats, TUNEL staining, compared to TB alone, one-way ANOVA): statistically significant (p<0.01) increase in epithelial cell apoptosis
(6S,7S,8S)-7-ethyl-6-(3- fluoro-4-hydroxyphenyl)- 8-(2-fluorobenzy1)-5,6, 7,8-tetrahydro- naphthalen-2-ol [Compound 11q] | >169 | 0.59 nM |  | Human hepatocyte T 1/2 (human hepatocytes): 82.2 min; ERβ eudismic ratio ([1]; ratio of activities of eutomer and distomer on ERβ): 7; ERα eudismic ratio [4]: <0.3
CC[C@@H]1[C@H](c2ccc(O)c(F)c2)Cc2ccc(O)cc2[C@@H]1Cc1ccccc1F (single isomer, unassigned) [Compound 12q] |  |  | > 120 min | 
C[C@@H]1[C@H](c2ccc(O)cc2)Cc2ccc(O)cc2[C@@H]1Cc1c(F)cccc1F (single isomer, unassigned) [Compound 12i] |  |  | 33.7 min | 
